# Results published in patent publication US7173010B2, “Orphanin FQ receptor” (Regents of the University of Michigan, priority 2003, dated 2007).
# No end group written: not given here.
# How the values were obtained:
# OFQ receptor = target: T1, OFQ receptor (Rattus norvegicus, UniProt P35370); assay type: cell-based; conditions: Cos-7 cells transfected with OFQ receptor gene
# T1 construct: in Cos-7 cells transfected with OFQ receptor gene; expressed in transfected cells; host or cells: Cos-7
# Source text: Orphanin FQ is a neuropeptide that structurally resembles an opioid peptide. […] While not being limited to any particular mechanism, the present invention contemplates that Orphanin FQ stimulates peristalsis and enhances colonic transit by inhibiting purinergic pathways in myenteric plexus. To delineate the molecular interactions between OFQR and its ligands, Cos-7 cells were transfected with normal or chimeric OFQR genes. […] The ability of Orphanin FQ and related peptides to inhibit cAMP production in Cos-7 cells was evaluated. […] Dynorphin encoding nucleic acids and gene products are known in the art, see for example, NM_024411, NM_133828, NM_174139, NM_018863, M10088, AH002816, K02268, K02267, Alo34562, U58500, and U38912.
# [1] = test system: circular muscle strips of distal colon; test: Spontaneous contraction of circular muscle strips of distal colon from rats with postoperative ileus, in vitro; set-up: species or system rat; conditions: strips from rats with PI, 4 h after surgery
# Experimental: In vitro and in vivo colonic motility studies were performed using a known rat model of PI. Rats equipped with a colonic cannula underwent a sham operation or laparotomy plus simple cecum manipulation. Circular muscle strips of distal colon were studied in vitro 4 h after surgery. Cecum manipulation reduced spontaneous colonic muscle contraction by 50% compared to sham operation. […] Similarly, OFQ (10^−7 mol/L) reversed the inhibitory effects; contraction increased 450±60% over basal. […] ATP in myenteric neurons increased 2.5-fold, as measured by quinacrine immunofluorescence. In response to electrical field stimulation, ATP release (luciferase assay) from colonic tissue after cecum manipulation was 50% more than after sham operation. In vivo measurement of colonic transit using carmine migration was performed 4 h after cecum manipulation. In sham-operated rats, carmine migrated 90.8±6.5% of the colon length in 2 h. Cecum manipulation slowed transit 68±5% compared to sham operation. OFQ dose-dependently reversed delayed colonic transit evoked by cecum manipulation (0.5 and 1 nmol/L OFQ improved transit to 76±4% and 94±3%). […] These changes contribute to delayed colonic transit. OFQ, a potent inhibitor of purinergic transmission, reversed PI in rats.
# colonic contractions = test: Colonic contractions after infusion of peptide; assay type: in vivo
# colonic transit = test: Colonic transit (geometric center) after subcutaneous administration; assay type: in vivo
# [2] = target: T2, Orphanin FQ receptor (OFQR) (Rattus norvegicus, UniProt P35370); test: Inhibition of [^125I] Y14-OFQ17 binding / specific OFQ binding in Cos-7 cells transfected with normal OFQR gene; conditions: Cos-7 cells transfected with OFQR gene; for IC50: read-out: IC50, concentration dependent inhibition of [^125I] Y14-OFQ17 binding
# T2 construct: expressed in transfected cells; host or cells: Cos-7
# T2 sequence (P35370 whole entry): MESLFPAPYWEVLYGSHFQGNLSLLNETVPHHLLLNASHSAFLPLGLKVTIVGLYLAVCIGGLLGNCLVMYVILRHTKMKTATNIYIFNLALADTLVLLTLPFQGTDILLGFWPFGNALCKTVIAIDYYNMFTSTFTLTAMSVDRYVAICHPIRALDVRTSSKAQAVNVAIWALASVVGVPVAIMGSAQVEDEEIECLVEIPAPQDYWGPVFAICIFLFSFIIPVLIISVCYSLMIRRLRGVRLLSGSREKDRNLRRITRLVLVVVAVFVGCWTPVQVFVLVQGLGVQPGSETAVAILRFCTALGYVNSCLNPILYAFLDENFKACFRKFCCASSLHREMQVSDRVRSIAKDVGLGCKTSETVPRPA
# T1 sequence (P35370 whole entry): as above
compound,measurement,setting,value
Pertussis toxin,effect on the inhibitory action of OFQ on cAMP production,OFQ receptor,reversed the inhibitory action of OFQ
PPADGS,enhancement of spontaneous contraction over basal,[1]; 3×10^−5 mol/L,5±4%
"Orphanin FQ(1–12): Orphanin FQ fragment, amino acids 1–12 (FGGFTGARKSAR; Nociceptin; UniProt Q13519 130-141, looked up, fragment)","potency relative to Orphanin FQ(1–17), times less potent",colonic contractions; in vivo,100 times
"replacement of Arg^8 by L-alanin: Orphanin FQ with Arg8 replaced by L-alanine (FGGFTGAAKSARKLANQ; Nociceptin; UniProt Q13519 130-146, looked up, variant R8A)",Orphanin FQ activity of substituted analogues,colonic contractions; in vivo,complete loss of activity
"Dyn A: Dynorphin A, peptide with structural homology to Orphanin FQ (YGGFLRRIRPKLKWDNQ; Dynorphin A(1-17); UniProt P01213 207-223, looked up)",type of contractions induced,colonic contractions; infusion 100 nmol/kg/min,evoked non-migrating simultaneous contractions
same,"colonic transit, geometric center",colonic transit; 30 nmol/kg,3.14±0.21
same,"colonic transit, geometric center",colonic transit; 100 nmol/kg,2.42±0.17
FGGFTGAKKSARKLANQ [R8K],IC50,[2],0.1 nM
Cc1ccc(C(=O)Nc2ccc(S(=O)(=O)O)c3cc(S(=O)(=O)O)cc(S(=O)(=O)O)c23)cc1NC(=O)c1cccc(NC(=O)Nc2cccc(C(=O)Nc3cc(C(=O)Nc4ccc(S(=O)(=O)O)c5cc(S(=O)(=O)O)cc(S(=O)(=O)O)c45)ccc3C)c2)c1 [Suramin],enhancement of spontaneous contraction over basal,[1]; 10^−4 mol/L,210±15%
Nc1c(S(=O)(=O)O)cc(Nc2ccc(Nc3nc(Cl)nc(Nc4cccc(S(=O)(=O)O)c4)n3)c(S(=O)(=O)O)c2)c2c1C(=O)c1ccccc1C2=O [reactive blue 2],enhancement of spontaneous contraction over basal,[1]; 3×10^−5 mol/L,287±20%
"substitution by tyrosine: Orphanin FQ with Phe in position 1 substituted by tyrosine (YGGFTGARKSARKLANQ; Nociceptin; UniProt Q13519 130-146, looked up, variant F1Y)",Orphanin FQ activity of substituted analogues,colonic contractions; in vivo,no loss of activity
Dynorphin 17: Dynorphin peptide tested for effect on OFQ binding,effect on OFQ binding,[2],no effect
"Orphanin FQ(1–13): Orphanin FQ fragment, amino acids 1–13",potency in stimulating contractions compared with full peptide Orphanin FQ(1–17),colonic contractions; in vivo,same potency
β endorphin 31: opioid peptide tested for effect on OFQ binding,effect on OFQ binding,[2],no effect
FGGFTGARKSARCLANQ [K13C],IC50,[2],0.1 nM
FGGFTGARKSA [OFQ11],IC50,[2],5000 nM
